This is an account of results in ChEMBL document CHEMBL1287684, “5-(pyridinon-1-yl)indazoles and 5-(furopyridinon-5-yl)indazoles as MCH-1 antagonists” (Bioorg Med Chem Lett, 2010).

Molecules are shown by their SMILES. In brackets after ≈: the same amount, converted by molar mass. Bounds are passed on as bounds.

In series [1] the target is Voltage-gated inwardly rectifying potassium channel KCNH2 (Homo sapiens, UniProt Q12809). Kind of series: Inhibition of human ERG expressed in HEK cells by mini-patch clamp assay. Background: Patch clamp records ionic current or voltage across a cell membrane.
Series [2] deals with Mus musculus. Kind of series: Antiobesity activity in diet-induced obese C57BL/6J mouse model assessed as reduction of body weight at 30 mg/kg, po bid for 5 days. The class given is functional. Set-up: scale not given: the % may be the effect or the level left.
Series [3] addresses Cytochrome P450 3A4 (Homo sapiens, UniProt P08684). Kind of series: Inhibition of CYP3A4. The class given is ADME.
Series [4] is described as follows: Aqueous solubility in PBS at pH 7.4. The class given is physicochemical.
Series [5] can be described thus: Half life in mouse liver microsomes. Type of series: ADME, Microsome. In general terms: Microsomes from liver hold many membrane-bound enzymes, among them those of drug oxidation.
The target of series [6] is T1, Melanin-concentrating hormone receptor 1 (Homo sapiens, UniProt Q99705). Kind of series: Displacement of [3H]4-(benzyloxy)-1-(1-(2-(pyrrolidin-1-yl)ethyl)-1H-indazol-5-yl)pyridin-2(1H)-one from MCH-1 receptor expressed in CHO-K1 cells. Type of series: cell-based. (In a radioligand displacement assay an active substance lowers the binding of a labelled ligand.)
A short description of series [7]: Half life in human liver microsomes. The class given is ADME, Microsome.
The nature of series [8]: Ratio of drug level in brain to plasma in mouse at 30 mg/kg after 6 hrs. The class given is ADME, organism-based. Set-up: dose 30 mg/kg. As to conditions: read-out: BPR.
Series [9] concerns the target T1, Melanin-concentrating hormone receptor 1. The series is described as follows: Antagonistic activity at MCH-1 receptor expressed in CHO-K1 cell assessed as inhibition of MCH-induced calcium release. The class given is functional, cell-based.
Series [10] is described as follows: Drug level in mouse brain at 30 mg/kg after 6 hrs. The class given is ADME, organism-based. Set-up: dose 30 mg/kg. As to conditions: read-out: Drug uptake.
In series [11] the target is T2, Cytochrome P450 1A2 (Homo sapiens, UniProt P05177).
T2 sequence (P05177 whole entry): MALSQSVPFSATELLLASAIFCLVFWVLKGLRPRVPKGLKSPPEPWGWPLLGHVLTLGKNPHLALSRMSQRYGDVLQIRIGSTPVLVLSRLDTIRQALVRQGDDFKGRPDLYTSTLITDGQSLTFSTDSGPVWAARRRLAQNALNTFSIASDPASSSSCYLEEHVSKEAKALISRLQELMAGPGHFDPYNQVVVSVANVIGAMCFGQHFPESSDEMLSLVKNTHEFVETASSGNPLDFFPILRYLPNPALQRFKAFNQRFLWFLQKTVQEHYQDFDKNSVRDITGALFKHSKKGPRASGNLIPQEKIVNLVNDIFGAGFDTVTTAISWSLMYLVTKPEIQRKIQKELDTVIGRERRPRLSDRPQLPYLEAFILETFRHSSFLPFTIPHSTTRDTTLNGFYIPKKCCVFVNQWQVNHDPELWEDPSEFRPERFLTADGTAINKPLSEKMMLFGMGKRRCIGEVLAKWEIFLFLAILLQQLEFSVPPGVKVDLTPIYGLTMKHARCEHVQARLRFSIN
Kind of series: Inhibition of CYP1A2. The class given is ADME.

A short description of series [12]: Plasma concentration in mouse at 30 mg/kg after 6 hrs. The class given is ADME, organism-based. Set-up: dose 30 mg/kg.
In series [13] the target is Cytochrome P450 2C19 (Homo sapiens, UniProt P33261). Kind of series: Inhibition of CYP2C19. The class given is ADME.
Series [14] has as its target Cytochrome P450 2C9 (Homo sapiens, UniProt P11712).
Series [15] deals with Cytochrome P450 2D6 (Homo sapiens, UniProt P10635). Kind of series: Inhibition of CYP2D6. Type of series: ADME.
For series [16], the target named is T3, Cytochrome P450 2B6 (Homo sapiens, UniProt P20813).
T3 sequence (P20813 whole entry): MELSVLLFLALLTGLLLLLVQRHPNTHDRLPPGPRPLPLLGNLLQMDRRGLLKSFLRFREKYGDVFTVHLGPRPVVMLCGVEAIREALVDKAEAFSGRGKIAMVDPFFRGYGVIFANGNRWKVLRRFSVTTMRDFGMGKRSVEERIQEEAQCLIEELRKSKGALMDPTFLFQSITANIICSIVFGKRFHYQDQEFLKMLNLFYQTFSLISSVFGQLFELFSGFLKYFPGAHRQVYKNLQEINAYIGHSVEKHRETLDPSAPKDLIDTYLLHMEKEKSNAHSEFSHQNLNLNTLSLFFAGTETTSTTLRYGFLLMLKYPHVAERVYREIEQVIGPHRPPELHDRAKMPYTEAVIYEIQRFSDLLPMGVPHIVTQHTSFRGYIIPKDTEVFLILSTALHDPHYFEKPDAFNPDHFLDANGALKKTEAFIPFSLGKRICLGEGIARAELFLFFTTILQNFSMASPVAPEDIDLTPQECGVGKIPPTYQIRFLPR
The series is described as follows: Inhibition of CYP2B6. Type of series: ADME.

Series [17] is described as follows: Ratio of drug level in brain to plasma in mouse at 10 mg/kg after 6 hrs. The class given is ADME, organism-based. On the set-up: dose 10 mg/kg. The following applies: read-out: BPR.
In series [18] the test system is Mus musculus. Kind of series: Antiobesity activity in diet-induced obese C57BL/6J mouse model assessed as reduction of body weight at 30 mg/kg, po qd for 5 days. The class given is functional. Set-up: scale not given: the % may be the effect or the level left.
Series [19] in a line: Drug level in mouse brain at 10 mg/kg after 6 hrs. The class given is ADME, organism-based. On the set-up: dose 10 mg/kg. As to conditions: read-out: Drug uptake.
Series [20] in a line: Plasma concentration in mouse at 10 mg/kg after 6 hrs. The class given is ADME, organism-based. On the set-up: dose 10 mg/kg.

What is called IC50 is the concentration that inhibits the measured activity by half. By solubility is commonly meant the dissolved amount per volume that the medium holds. By half-life is commonly meant the time in which the quantity being followed falls by half. For orientation: Ki means a measure of affinity in units of concentration, obtained from inhibition or displacement.

T1 sequence (Q99705 whole entry): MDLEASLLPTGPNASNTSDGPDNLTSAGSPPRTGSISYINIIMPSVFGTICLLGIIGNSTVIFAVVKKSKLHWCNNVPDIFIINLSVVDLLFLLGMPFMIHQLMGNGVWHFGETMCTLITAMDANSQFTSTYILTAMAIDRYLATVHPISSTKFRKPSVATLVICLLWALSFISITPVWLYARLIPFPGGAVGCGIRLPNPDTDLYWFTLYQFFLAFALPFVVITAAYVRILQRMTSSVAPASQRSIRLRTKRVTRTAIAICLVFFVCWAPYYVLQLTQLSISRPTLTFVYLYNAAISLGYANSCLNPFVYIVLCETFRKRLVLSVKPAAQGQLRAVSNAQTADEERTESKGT
Chain of Voltage-gated inwardly rectifying potassium channel KCNH2 (Q12809 whole entry): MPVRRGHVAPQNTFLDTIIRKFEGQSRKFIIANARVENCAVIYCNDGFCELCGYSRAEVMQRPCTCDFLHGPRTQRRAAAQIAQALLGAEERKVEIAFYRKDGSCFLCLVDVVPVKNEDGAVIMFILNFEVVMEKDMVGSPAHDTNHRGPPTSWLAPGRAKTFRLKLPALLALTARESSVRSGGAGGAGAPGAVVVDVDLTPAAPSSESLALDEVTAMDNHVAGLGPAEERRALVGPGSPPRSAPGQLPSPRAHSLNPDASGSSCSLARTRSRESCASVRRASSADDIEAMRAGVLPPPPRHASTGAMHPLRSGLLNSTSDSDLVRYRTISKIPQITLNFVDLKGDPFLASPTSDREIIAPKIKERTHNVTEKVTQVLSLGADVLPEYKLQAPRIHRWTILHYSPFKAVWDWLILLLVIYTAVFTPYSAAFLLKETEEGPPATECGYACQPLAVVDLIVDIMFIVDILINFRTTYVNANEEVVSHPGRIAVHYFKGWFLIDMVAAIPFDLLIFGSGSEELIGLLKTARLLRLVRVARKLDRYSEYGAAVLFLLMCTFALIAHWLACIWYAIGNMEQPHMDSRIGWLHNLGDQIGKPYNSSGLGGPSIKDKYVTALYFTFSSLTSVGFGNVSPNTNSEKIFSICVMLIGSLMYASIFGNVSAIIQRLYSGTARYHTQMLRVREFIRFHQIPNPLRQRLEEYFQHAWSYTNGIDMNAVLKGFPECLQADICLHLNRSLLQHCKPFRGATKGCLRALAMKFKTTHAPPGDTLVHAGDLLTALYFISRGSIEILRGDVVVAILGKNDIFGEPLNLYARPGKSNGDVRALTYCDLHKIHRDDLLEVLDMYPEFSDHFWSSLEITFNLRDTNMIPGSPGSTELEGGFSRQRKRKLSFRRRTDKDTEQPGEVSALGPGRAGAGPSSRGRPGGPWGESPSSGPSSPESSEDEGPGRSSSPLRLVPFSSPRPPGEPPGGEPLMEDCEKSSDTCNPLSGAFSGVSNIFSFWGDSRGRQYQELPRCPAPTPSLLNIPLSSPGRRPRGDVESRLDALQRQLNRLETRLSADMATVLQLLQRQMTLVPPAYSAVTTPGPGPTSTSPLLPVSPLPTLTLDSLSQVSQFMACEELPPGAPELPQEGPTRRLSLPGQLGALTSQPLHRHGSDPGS
Chain of Cytochrome P450 3A4 (P08684 whole entry): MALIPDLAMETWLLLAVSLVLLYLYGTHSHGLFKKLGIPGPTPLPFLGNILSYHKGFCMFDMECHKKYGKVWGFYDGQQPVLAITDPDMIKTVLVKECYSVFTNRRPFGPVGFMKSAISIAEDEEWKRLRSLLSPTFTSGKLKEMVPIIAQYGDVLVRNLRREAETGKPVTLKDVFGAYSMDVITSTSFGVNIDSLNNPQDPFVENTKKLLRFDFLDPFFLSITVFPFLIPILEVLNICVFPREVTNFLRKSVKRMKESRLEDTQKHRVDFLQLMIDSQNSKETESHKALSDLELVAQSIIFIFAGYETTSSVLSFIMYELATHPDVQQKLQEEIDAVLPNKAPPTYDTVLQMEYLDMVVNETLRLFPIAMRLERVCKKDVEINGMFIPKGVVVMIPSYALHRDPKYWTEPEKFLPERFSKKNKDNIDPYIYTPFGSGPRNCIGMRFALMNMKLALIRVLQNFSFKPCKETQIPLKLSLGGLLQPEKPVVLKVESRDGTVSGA
Chain of Cytochrome P450 2D6 (P10635 whole entry): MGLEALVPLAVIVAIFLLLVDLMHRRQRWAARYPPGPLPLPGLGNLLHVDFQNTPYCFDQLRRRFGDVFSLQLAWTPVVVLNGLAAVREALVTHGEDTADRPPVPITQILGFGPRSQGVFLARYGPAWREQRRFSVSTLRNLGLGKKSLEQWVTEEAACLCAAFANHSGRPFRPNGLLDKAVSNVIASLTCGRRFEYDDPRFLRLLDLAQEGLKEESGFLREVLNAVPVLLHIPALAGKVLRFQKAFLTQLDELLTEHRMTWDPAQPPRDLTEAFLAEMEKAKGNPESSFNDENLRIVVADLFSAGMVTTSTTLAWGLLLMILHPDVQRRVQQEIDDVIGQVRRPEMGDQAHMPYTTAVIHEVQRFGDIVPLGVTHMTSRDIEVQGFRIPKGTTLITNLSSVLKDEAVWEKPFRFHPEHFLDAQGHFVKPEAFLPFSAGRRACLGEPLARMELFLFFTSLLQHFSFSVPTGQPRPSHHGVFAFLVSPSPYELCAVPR
Chain of Cytochrome P450 2C19 (P33261 whole entry): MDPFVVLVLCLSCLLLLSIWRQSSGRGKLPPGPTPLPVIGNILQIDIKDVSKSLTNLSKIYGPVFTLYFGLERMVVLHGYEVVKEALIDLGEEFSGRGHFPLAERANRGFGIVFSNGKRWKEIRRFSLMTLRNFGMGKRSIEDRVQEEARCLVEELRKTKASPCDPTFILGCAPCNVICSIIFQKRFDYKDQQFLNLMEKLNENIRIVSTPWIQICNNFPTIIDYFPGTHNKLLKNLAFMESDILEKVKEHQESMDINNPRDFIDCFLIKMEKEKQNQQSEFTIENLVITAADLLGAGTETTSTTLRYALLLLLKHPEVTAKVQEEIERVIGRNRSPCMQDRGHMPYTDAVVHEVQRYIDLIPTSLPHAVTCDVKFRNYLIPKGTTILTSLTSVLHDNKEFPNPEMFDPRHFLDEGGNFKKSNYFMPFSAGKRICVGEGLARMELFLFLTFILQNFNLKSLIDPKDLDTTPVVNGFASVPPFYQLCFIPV
Chain of Cytochrome P450 2C9 (P11712 whole entry): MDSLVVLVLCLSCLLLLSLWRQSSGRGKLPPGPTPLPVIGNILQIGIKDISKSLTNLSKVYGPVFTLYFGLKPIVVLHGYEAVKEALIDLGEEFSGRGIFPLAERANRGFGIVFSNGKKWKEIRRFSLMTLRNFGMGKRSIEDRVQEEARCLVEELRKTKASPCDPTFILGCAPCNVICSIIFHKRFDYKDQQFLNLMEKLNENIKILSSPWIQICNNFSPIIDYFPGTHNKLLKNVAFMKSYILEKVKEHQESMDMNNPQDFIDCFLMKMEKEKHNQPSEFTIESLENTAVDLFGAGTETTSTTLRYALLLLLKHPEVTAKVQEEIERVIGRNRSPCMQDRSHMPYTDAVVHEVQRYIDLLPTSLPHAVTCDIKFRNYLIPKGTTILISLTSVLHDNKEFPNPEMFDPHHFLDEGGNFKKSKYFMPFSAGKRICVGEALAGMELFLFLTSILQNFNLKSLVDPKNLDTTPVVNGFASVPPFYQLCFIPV

Regarding `O=c1cc(OCc2ccccc2)ccn1-c1ccc2c(cnn2CC2=NCCN2)c1`, the concentration for half-maximal inhibition (IC50) amounted to 8.5 µM in series [1] and 38 µM in [3]. For the same compound, the Activity in series [2] is given as 3.5%. The compound also registered a solubility in [4] of 410 µM (≈ 164 µg/mL). Moreover, the half-life in [5] came to 580 min; in series [7], 260 min. In [6], the affinity corresponds to a Ki of 22.6 nM.

`COC[C@H]1CCCN1CCn1ncc2cc(-n3ccc(OCc4ccccc4)cc3=O)ccc21` showed an IC50 in series [1] of 0.8 µM. In addition, the inhibition constant Ki in series [6] was 11.2 nM.

`O=c1cc(OCc2ccccc2)ccn1-c1ccc2c(cnn2CCN2CCC[C@@H]2CO)c1`: in [1], the 50% inhibitory concentration (IC50) amounted to 2.3 µM. For the same compound, the affinity in series [6], expressed as Ki, was 3.1 nM.

The compound `CCCCn1ncc2cc(-n3ccc(OCc4ccccc4)cc3=O)ccc21` showed a Ki in [6] above 5000 nM.

In series [1], `CN(C)CCn1ncc2cc(-n3ccc(OCc4ccccc4)cc3=O)ccc21` came in with an IC50 of 1.8 µM. For the same compound, the Ki in series [6] is 4.7 nM.

As to `O=c1cc(OCc2ccccc2)ccn1-c1ccc2c(cnn2CCN2CCCC2)c1`, in series [8], the Kp at 6 h turned out to be 0.7. The half-maximal inhibitory concentration (IC50) was 14 nM in [9], 10 µM in [3] and above 10 µM in series [11]. Further, the concentration at 6 h was 1480 ng/g in series [10] and 2220 ng/mL in series [12]. The compound also displayed a solubility in series [4] of 492 µM (≈ 204 µg/mL). Besides, the half-life in [5] came out at 695 min; in series [7], 303 min.

As for `CN(C)CCCn1ncc2cc(-n3ccc(OCc4ccccc4)cc3=O)ccc21`, 1.4 µM corresponded to half-maximal inhibition in [1] (IC50). The same compound gave an inhibitory constant (Ki) in [6] of 12.6 nM.

In turn, `CN(C)CC(O)Cn1ncc2cc(-n3ccc(OCc4ccccc4)cc3=O)ccc21` (stereo not given) gave an IC50 in series [1] of 12.1 µM. Moreover, the affinity in [6] corresponds to a Ki of 37.7 nM.

Take `O=c1cc(OCc2ccccc2)ccn1-c1ccc2c(cnn2CCN2CC[C@H](O)C2)c1`: the concentration for half-maximal inhibition (IC50) in [13] is above 10 µM; in series [1], 9 µM; in series [14], above 10 µM; in series [15], above 10 µM; in [3], 7.7 µM; in series [11], above 10 µM. The compound also came in with an IC50 in series [16] above 10 µM. For the same compound, the Activity in series [2] came to 3.3%. This compound also returned a solubility in series [4] above 500 µM. The figures for the half-life in [5] and in [7] were 433 min and 289 min, respectively. The affinity in series [6], expressed as Ki, was 4.7 nM.

`CO[C@H]1CCN(CCn2ncc3cc(-n4ccc(OCc5ccccc5)cc4=O)ccc32)C1` came in with a Ki in series [6] of 9.4 nM.

Consider `O=c1cc(OCc2ccccc2)ccn1-c1ccc2c(cnn2C[C@@H]2CCCN2)c1`, for which the IC50 in series [1] is 2 µM. This compound showed a Ki in series [6] of 12 nM.

On to `O=c1cc(OCc2ccccc2)ccn1-c1ccc2c(cnn2CC2C[C@@H](O)CN2)c1` (stereo not given in full), for which the 50% inhibitory concentration (IC50) in [1] was above 30 µM. The same compound displayed a Ki in [6] of 33 nM.

Take `CN1CCN=C1Cn1ncc2cc(-n3ccc(OCc4ccccc4)cc3=O)ccc21`: the Ki in series [6] was found to be 30.4 nM.

On to `O=c1cc(OCc2ccccc2)ccn1-c1ccc2c(cnn2CCN2CCOCC2)c1`, for which, in [1], the IC50 was above 30 µM. The compound also came in with a Ki in [6] of 43.4 nM.

On to `O=c1cc(OCc2ccccc2)ccn1-c1ccc2c(cnn2CCN2CC3CC2CO3)c1` (stereo not given), for which the IC50 in series [1] turned out to be 16 µM. In addition, in series [6], the inhibition constant Ki turned out to be 17.3 nM.

`O=c1cc(OCc2ccccc2)ccn1-c1ccc2c(cnn2CCN2CCNCC2)c1` had an inhibition constant (Ki) in [6] of 24.3 nM.

Regarding `O=c1c2cc(-c3ccccc3)oc2ccn1-c1ccc2c(cnn2CCN2CCCC2)c1`, affinity in [6] was put at a Ki of 9.7 nM.

`O=c1c2cc(-c3ccc(F)cc3)oc2ccn1-c1ccc2c(cnn2CCN2CCCC2)c1` registered a Ki in series [6] of 6.1 nM.

On to `O=c1c2cc(-c3ccc(Cl)cc3)oc2ccn1-c1ccc2c(cnn2CCN2CCCC2)c1`, for which the Kp at 6 h in series [17] came out at 16. Also, the Activity in [18] is 4.5%. The IC50 in series [9] turned out to be 23 nM. For the same compound, the concentration at 6 h is 2250 ng/g in series [19] and 141 ng/mL in series [20]. For the same compound, the inhibitory constant (Ki) in [6] was 5.2 nM.

In turn, `O=c1c2cc(-c3ccccc3Cl)oc2ccn1-c1ccc2c(cnn2CCN2CCCC2)c1` displayed a Ki in series [6] of 28 nM.

The compound `O=c1c2cc(-c3cccc(Cl)c3)oc2ccn1-c1ccc2c(cnn2CCN2CCCC2)c1` yielded a Ki in [6] of 38 nM.

As to `O=c1c2cc(-c3ccc(Cl)cc3Cl)oc2ccn1-c1ccc2c(cnn2CCN2CCCC2)c1`, the Ki in series [6] stood at 14 nM.

For the compound `O=c1c2cc(-c3ccc(Cl)cc3F)oc2ccn1-c1ccc2c(cnn2CCN2CCCC2)c1`, in [6], affinity was put at a Ki of 4.2 nM.

The compound `COc1cc(Cl)ccc1-c1cc2c(=O)n(-c3ccc4c(cnn4CCN4CCCC4)c3)ccc2o1` registered a Ki in series [6] of 48 nM.

Take `O=c1c2cc(-c3ccccn3)oc2ccn1-c1ccc2c(cnn2CCN2CCCC2)c1`: affinity in [6] was put at a Ki of 59 nM.

As for `O=c1c2cc(-c3ncccn3)oc2ccn1-c1ccc2c(cnn2CCN2CCCC2)c1`, the Ki in series [6] worked out at 1680 nM.
